Results as given in ChEMBL document CHEMBL6182877, “Design, synthesis, and activity evaluation of novel STING inhibitors based on C170 and H151” (Eur J Med Chem, 2025).
pIC50: −log10 of the molar value. Activity calls are given as the source filed them. No cut-off for these calls is given here.

How the values were obtained:
RAW264.7 [1] = assay: Cytotoxicity against mouse RAW264.7 cells assessed as cell viability by MTT assay
[2] = Cytotoxicity against HEK293T cells assessed as cell viability by MTT assay; type: toxicity, cell-based, HEK-293T; details: human
THP-1 = assay: Cytotoxicity against human THP-1 cells assessed as cell viability by MTT assay
[3] = Cytotoxicity against HUVEC cells assessed as cell viability by MTT assay; type: toxicity, cell-based; details: human
[4] = Toxicity in male C57BL/6J mouse assessed as body weight loss at 10 mg/kg, ip; type: organism-based; details: in vivo
Mus musculus [5] = assay: Renoprotective activity in cisplatin-induced acute kidney injury C57BL/6J mouse model assessed as reduction in BUN level at 10 mg/kg, ip; type: functional, organism-based
Mus musculus [6] = assay: Renoprotective activity in cisplatin-induced acute kidney injury C57BL/6J mouse model assessed as reduction in […] level at 10 mg/kg, ip; type: functional, organism-based
Mus musculus [7] = assay: Anti-inflammatory activity against MSA-2 induced C57BL/6 mouse model assessed as reduction in IFN-beta level in plasma at 30 mg/kg, ip pretreated with compound for 1 hr followed by MSA-2 induction and measured after 4 hr; type: functional, organism-based; details: time 5.0 hrs
Mus musculus [8] = assay: Anti-inflammatory activity against MSA-2 induced C57BL/6 mouse model assessed as downregulation of TBK1 expression in spleen at 30 mg/kg, ip pretreated with compound for 1 hr followed by MSA-2 induction and measured after 4 hrs; type: functional, organism-based; details: time 5.0 hrs
Mus musculus [9] = assay: Anti-inflammatory activity against MSA-2 induced C57BL/6 mouse model assessed as reduction in splenic index at 30 mg/kg, ip pretreated with compound for 1 hr followed by MSA-2 induction and measured after 4 hrs; type: functional, organism-based; details: time 5.0 hrs
Mus musculus [10] = assay: Anti-inflammatory activity against MSA-2 induced C57BL/6 mouse model assessed as reduction in IL-6 level in plasma at 30 mg/kg, ip pretreated with compound for 1 hr followed by MSA-2 induction and measured after 4 hr; type: functional, organism-based; details: time 5.0 hrs
[11] = Toxicity in male C57BL/6J mouse assessed as kidney damage at 10 mg/kg, ip by H and E staining based analysis; type: organism-based; details: in vivo
[12] = molecular target: T1, Stimulator of interferon genes protein (Mus musculus) (UniProt Q3TBT3); assay: Binding affinity to STING in mouse RAW264.7 cells assessed as increase in thermal stability at 30 uM 40 to 61 degreeC incubated for 8 hrs by CETSA analysis; type: cell-based
T1 sequence (whole entry): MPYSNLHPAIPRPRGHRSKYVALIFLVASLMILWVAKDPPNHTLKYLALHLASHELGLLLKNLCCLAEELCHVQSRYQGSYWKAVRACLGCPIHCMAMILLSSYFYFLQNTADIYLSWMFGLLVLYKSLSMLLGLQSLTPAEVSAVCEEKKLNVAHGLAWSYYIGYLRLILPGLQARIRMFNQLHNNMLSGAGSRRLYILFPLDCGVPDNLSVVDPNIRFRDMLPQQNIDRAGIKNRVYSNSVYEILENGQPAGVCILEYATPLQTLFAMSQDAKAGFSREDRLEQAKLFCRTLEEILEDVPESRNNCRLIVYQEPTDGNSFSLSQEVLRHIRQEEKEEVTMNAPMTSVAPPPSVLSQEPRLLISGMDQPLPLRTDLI

RAW264.7 [13] = assay: Antiinflammatory activity in mouse RAW264.7 cells assessed as inhibition of LPS-induced NO release at 0.2 to 5 uM pretreated with compound for 1 hr; type: functional, cell-based; details: dose 0.2-5 µM
[14] = molecular target: T2, Interferon regulatory factor 3 (Homo sapiens) (UniProt Q14653); assay: Inhibition of IRF3 phosphorylation in SR717-induced human THP-1 cells at 0.2 to 5 uM pretreated with compound for 1 hr followed by SR717 induction and measured after 4 hrs by Western blot analysis; type: cell-based; details: dose 0.2-5 µM, time 5.0 hrs
T2 sequence (whole entry): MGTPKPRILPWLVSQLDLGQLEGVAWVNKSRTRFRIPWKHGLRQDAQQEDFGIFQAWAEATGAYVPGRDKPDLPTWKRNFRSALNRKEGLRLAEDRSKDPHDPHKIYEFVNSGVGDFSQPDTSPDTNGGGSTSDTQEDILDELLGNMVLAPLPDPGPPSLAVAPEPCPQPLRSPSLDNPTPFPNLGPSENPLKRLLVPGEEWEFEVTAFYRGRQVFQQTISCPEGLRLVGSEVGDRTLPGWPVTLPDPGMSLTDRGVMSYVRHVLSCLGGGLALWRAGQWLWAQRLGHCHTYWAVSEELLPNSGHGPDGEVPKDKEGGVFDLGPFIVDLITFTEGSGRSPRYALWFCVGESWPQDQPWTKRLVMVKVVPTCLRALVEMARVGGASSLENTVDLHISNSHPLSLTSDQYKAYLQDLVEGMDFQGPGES

[15] = molecular target: T3, Serine/threonine-protein kinase TBK1 (Homo sapiens) (UniProt Q9UHD2); assay: Inhibition of TBK1 phosphorylation in SR717-induced human THP-1 cells at 0.2 to 5 uM pretreated with compound for 1 hr followed by SR717 induction and measured after 4 hrs by Western blot analysis; type: cell-based; details: dose 0.2-5 µM, time 5.0 hrs
T3 sequence (whole entry): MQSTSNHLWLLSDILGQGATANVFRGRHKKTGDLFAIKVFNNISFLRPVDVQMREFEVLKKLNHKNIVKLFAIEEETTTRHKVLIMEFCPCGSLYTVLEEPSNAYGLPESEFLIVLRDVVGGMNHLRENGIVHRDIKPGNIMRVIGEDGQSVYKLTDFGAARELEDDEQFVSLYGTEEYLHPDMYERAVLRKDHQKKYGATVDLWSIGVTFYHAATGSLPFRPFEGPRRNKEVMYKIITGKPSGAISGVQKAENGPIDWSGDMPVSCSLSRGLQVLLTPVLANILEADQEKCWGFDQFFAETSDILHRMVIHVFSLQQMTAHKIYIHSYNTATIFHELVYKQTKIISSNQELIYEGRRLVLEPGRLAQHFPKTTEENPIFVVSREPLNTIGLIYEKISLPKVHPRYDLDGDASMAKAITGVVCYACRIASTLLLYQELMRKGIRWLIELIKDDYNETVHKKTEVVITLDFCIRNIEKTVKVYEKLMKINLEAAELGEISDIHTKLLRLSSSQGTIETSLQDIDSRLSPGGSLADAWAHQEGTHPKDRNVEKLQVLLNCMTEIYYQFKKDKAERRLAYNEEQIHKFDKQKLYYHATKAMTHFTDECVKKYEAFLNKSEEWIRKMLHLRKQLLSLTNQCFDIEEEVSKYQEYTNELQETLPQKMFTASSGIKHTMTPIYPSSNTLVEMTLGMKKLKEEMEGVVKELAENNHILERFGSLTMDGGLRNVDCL

Mus musculus [16] = assay: Renoprotective activity in cisplatin-induced acute kidney injury C57BL/6J mouse model assessed as reduction in […] level at 10 to 20 mg/kg, ip; type: functional, organism-based; details: dose 10-20 mg/kg
Mus musculus [17] = assay: Protection against cisplatin-induced C57BL/6J mouse assessed as reduction in vacuole-like changes in kidney at 10 to 20 mg/kg, ip pretreated with compound for 1 hr followed by cisplatin induction and measured after 4 hrs by H and E staining based analysis; type: functional, organism-based; details: dose 10-20 mg/kg, time 5.0 hrs
[18] = molecular target: T1, Stimulator of interferon genes protein (Mus musculus); assay: Binding affinity to STING in mouse RAW264.7 cells assessed as increase in thermal stability at 30 uM 47 to 62 degreeC incubated for 8 hrs by CETSA analysis; type: cell-based
[19] = molecular target: Stimulator of interferon genes protein (Homo sapiens) (UniProt Q86WV6); assay: Inhibition of STING activation in human THP-1 cells assessed as reduction in SR717-induced IFNbeta mRNA expression at 0.03 to 0.3 uM pretreated with compound for 1 hr followed by SR717 induction and measured after 4 hrs by qPCR analysis; type: cell-based; details: dose 0.03-0.3 µM, time 5.0 hrs
Sequence of Stimulator of interferon genes protein (Homo sapiens) (Q86WV6 whole entry): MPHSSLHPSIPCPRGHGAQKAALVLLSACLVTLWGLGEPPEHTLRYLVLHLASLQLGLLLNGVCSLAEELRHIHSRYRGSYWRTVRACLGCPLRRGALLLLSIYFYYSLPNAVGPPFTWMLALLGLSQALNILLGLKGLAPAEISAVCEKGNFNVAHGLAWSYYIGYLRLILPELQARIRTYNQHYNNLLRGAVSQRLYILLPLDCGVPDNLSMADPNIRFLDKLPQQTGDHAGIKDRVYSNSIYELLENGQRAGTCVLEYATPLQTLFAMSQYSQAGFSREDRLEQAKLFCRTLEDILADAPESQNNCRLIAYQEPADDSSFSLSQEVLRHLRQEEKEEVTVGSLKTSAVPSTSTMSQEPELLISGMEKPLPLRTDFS

Mus musculus [20] = assay: Anti-inflammatory activity in cisplatin-induced acute kidney injury C57BL/6J mouse model assessed as reduction in kidney index at 10 to 20 mg/kg, ip; type: functional, organism-based; details: dose 10-20 mg/kg
Mus musculus [21] = assay: Protection against cisplatin-induced C57BL/6J mouse assessed as effect on enlargement of splenic corpuscle in spleen at 10 to 20 mg/kg, ip pretreated with compound for 1 hr followed by cisplatin induction and measured after 4 hrs by H and E staining based analysis; type: functional, organism-based; details: dose 10-20 mg/kg, time 5.0 hrs
Mus musculus [22] = assay: Protection against cisplatin-induced C57BL/6J mouse assessed as reduction in tubular obstruction in kidney at 10 to 20 mg/kg, ip pretreated with compound for 1 hr followed by cisplatin induction and measured after 4 hrs by H and E staining based analysis; type: functional, organism-based; details: dose 10-20 mg/kg, time 5.0 hrs
Mus musculus [23] = assay: Protection against cisplatin-induced C57BL/6J mouse assessed as reduction in tubular structure disintegration in kidney at 10 to 20 mg/kg, ip pretreated with compound for 1 hr followed by cisplatin induction and measured after 4 hrs by H and E staining based analysis; type: functional, organism-based; details: dose 10-20 mg/kg, time 5.0 hrs
Mus musculus [24] = assay: Protection against cisplatin-induced C57BL/6J mouse assessed as effect on inflammatory cell infiltration in spleen at 10 to 20 mg/kg, ip pretreated with compound for 1 hr followed by cisplatin induction and measured after 4 hrs by H and E staining based analysis; type: functional, organism-based; details: dose 10-20 mg/kg, time 5.0 hrs
[25] = molecular target: Stimulator of interferon genes protein (Homo sapiens) (UniProt Q86WV6); assay: Inhibition of STING activation in human THP-1 cells assessed as reduction in SR717-induced CXCL10 mRNA expression at 0.03 to 0.3 uM pretreated with compound for 1 hr followed by SR717 induction and measured after 4 hrs by qPCR analysis; type: cell-based; details: dose 0.03-0.3 µM, time 5.0 hrs
Mus musculus [26] = assay: Anti-inflammatory activity in cisplatin-induced acute kidney injury C57BL/6J mouse model assessed as reduction in ALT level in plasma at 10 to 20 mg/kg, ip; type: functional, organism-based; details: dose 10-20 mg/kg
Mus musculus [27] = assay: Protection against cisplatin-induced C57BL/6J mouse assessed as reduction in inflammatory cell exudation in kidney at 10 to 20 mg/kg, ip pretreated with compound for 1 hr followed by cisplatin induction and measured after 4 hrs by H and E staining based analysis; type: functional, organism-based; details: dose 10-20 mg/kg, time 5.0 hrs
Mus musculus [28] = assay: Anti-inflammatory activity in cisplatin-induced acute kidney injury C57BL/6J mouse model assessed as reduction in AST level in plasma at 10 to 20 mg/kg, ip; type: functional, organism-based; details: dose 10-20 mg/kg
Mus musculus [29] = assay: Protection against cisplatin-induced C57BL/6J mouse assessed as effect on fibrotic tissue proliferation in spleen at 10 to 20 mg/kg, ip pretreated with compound for 1 hr followed by cisplatin induction and measured after 4 hrs by H and E staining based analysis; type: functional, organism-based; details: dose 10-20 mg/kg, time 5.0 hrs
Mus musculus [30] = assay: Protection against cisplatin-induced C57BL/6J mouse assessed as reduction in tubular epithelial edema in kidney at 10 to 20 mg/kg, ip pretreated with compound for 1 hr followed by cisplatin induction and measured after 4 hrs by H and E staining based analysis; type: functional, organism-based; details: dose 10-20 mg/kg, time 5.0 hrs

Row | Compound | pIC50 (RAW264.7 [1]) | pIC50 [2] | pIC50 (THP-1) | pIC50 [3] | Activity [4] | Activity (Mus musculus [5]) | Activity (Mus musculus [6]) | Activity (Mus musculus [7]) | Activity (Mus musculus [8]) | Activity (Mus musculus [9]) | Activity (Mus musculus [10]) | Activity [11] | other results
1 | O=C(/C=C/C=C/c1ccccc1)OCCc1ccc(NC(=O)c2ccc([N+](=O)[O-])o2)cc1 | 5.58 | 5.20 | 5.34 | 5.10 |  |  |  |  |  |  |  |  | 
2 | O=C(/C=C/C=C/c1ccccc1)OCc1ccc(NC(=O)c2ccc([N+](=O)[O-])o2)cc1 | 6.28 | 5.13 |  |  |  |  |  |  |  |  |  |  | 
3 | C/C=C/C=C/C(=O)OCc1ccc(NC(=O)c2ccc([N+](=O)[O-])o2)cc1 | 6.31 | 5.07 |  |  |  |  |  |  |  |  |  |  | 
4 | CCCCc1ccc(NC(=O)c2ccc([N+](=O)[O-])o2)cc1 | 6.05 | 5.55 | 5.09 | 5.32 | Non-toxic | Active | Active | Active | Active | Active | Active | Non-toxic | 
5 | O=C(Nc1ccc(OCCCC(F)(F)F)cc1)c1ccc([N+](=O)[O-])o1 | 5.28 | 4.95 | 4.77 | 4.98 | Non-toxic | Active | Active | Active | Active | Active | Active | Non-toxic | Activity [12]: Active; Activity (RAW264.7 [13]): inactive; inhibition [14]: Active; inhibition [15]: Active
6 | O=C(Nc1ccc(OCCCC(F)(F)F)cc1)Nc1c[nH]c2ccccc12 |  |  |  |  |  |  |  |  |  |  |  |  | Activity (Mus musculus [16]): Active; Activity (Mus musculus [17]): Active; Activity [18]: Active; inhibition [19]: Active; Activity (Mus musculus [20]): Active; Activity (Mus musculus [21]): Active; Activity (Mus musculus [22]): Active; Activity (Mus musculus [23]): Active; Activity (Mus musculus [24]): Active; inhibition [25]: Active; Activity (Mus musculus [26]): Active; Activity (Mus musculus [27]): Active; Activity (Mus musculus [28]): Active; Activity (Mus musculus [29]): Active; Activity (Mus musculus [30]): Active
